Results: ChEMBL document CHEMBL1201861, “Genomics of Drug Sensitity in Cancer screening data, Wellcome Trust Sanger Institute”
pIC50: −log10 of the molar value.

How the values were obtained:
Assay in all cases: cells
[1] = system: JEG-3; format: functional, cell-based; settings: Homo sapiens;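 further: growth inhibition of human JEG-3 cells, read out with a cell viability assay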
Description: SANGER: Inhibition of human JEG-3 cell growth in a cell viability assay.

[2] = system: NCI-H630; format: functional, cell-based; settings: Homo sapiens;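 further: growth inhibition of NCI-H630 cells, read out with a cell viability assay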
Description: SANGER: Inhibition of human NCI-H630 cell growth in a cell viability assay.

[3] = system: NUGC-3; format: functional, cell-based; settings: Homo sapiens;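 further: growth inhibition of human NUGC-3 cells, read out with a cell viability assay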
Description: SANGER: Inhibition of human NUGC-3 cell growth in a cell viability assay.

[4] = system: FTC-133; format: functional, cell-based; settings: Homo sapiens
[5] = system: KYSE-150 cell line; format: functional, cell-based; settings: Homo sapiens;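 further: growth inhibition of human KYSE-150 cells, read out with a cell viability assay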
Description: SANGER: Inhibition of human KYSE-150 cell growth in a cell viability assay.

[6] = system: KYSE-180; format: functional, cell-based; settings: Homo sapiens;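 further: growth inhibition of KYSE-180 cells, read out with a cell viability assay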
Description: SANGER: Inhibition of human KYSE-180 cell growth in a cell viability assay.

[7] = system: NCI-H727; format: functional, cell-based; settings: Homo sapiens;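 further: growth inhibition of human NCI-H727 cells, read out with a cell viability assay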
Description: SANGER: Inhibition of human NCI-H727 cell growth in a cell viability assay.

[8] = system: T-24; format: functional, cell-based; settings: Homo sapiens;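 further: growth inhibition of T-24 cells, read out with a cell viability assay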
Description: SANGER: Inhibition of human T-24 cell growth in a cell viability assay.

[9] = system: EFM-19; format: functional, cell-based; settings: Homo sapiens;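 further: growth inhibition of human EFM-19 cells, measured in a cell viability assay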
Description: SANGER: Inhibition of human EFM-19 cell growth in a cell viability assay.

[10] = system: ChaGo-K-1; format: functional, cell-based; settings: Homo sapiens;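 further: growth inhibition of ChaGo-K-1 cells, read out with a cell viability assay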
Description: SANGER: Inhibition of human ChaGo-K-1 cell growth in a cell viability assay.

[11] = system: 5637; format: functional, cell-based; settings: Homo sapiens
Description: SANGER: Inhibition of human 5637 cell growth in a cell viability assay.

[12] = system: AGS; format: functional, cell-based; settings: Homo sapiens;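 further: growth inhibition of AGS cells, determined with a cell viability assay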
Description: SANGER: Inhibition of human AGS cell growth in a cell viability assay.

[13] = system: HMV-2 cell line; format: functional, cell-based; settings: Homo sapiens;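 further: growth inhibition of HMV-II cells, read out with a cell viability assay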
Description: SANGER: Inhibition of human HMV-II cell growth in a cell viability assay.

[14] = system: VM-CUB-1; format: functional, cell-based; settings: Homo sapiens;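 further: cell viability assay measuring growth inhibition of the human VM-CUB-1 cell line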
Description: SANGER: Inhibition of human VM-CUB-1 cell growth in a cell viability assay.

[15] = system: HTC-C3; format: functional, cell-based; settings: Homo sapiens;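 further: inhibition of cell growth, read out with a cell viability assay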
Description: SANGER: Inhibition of human HTC-C3 cell growth in a cell viability assay.

[16] = system: MKN-28; format: functional, cell-based; settings: Homo sapiens;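 further: cell viability assay read-out, IC50 reflects suppression of growth of human MKN-28 cells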
Description: SANGER: Inhibition of human MKN28 cell growth in a cell viability assay.

[17] = system: MHH-ES-1; format: functional, cell-based; settings: Homo sapiens;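 further: cell growth inhibition measured by a cell viability assay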
Description: SANGER: Inhibition of human MHH-ES-1 cell growth in a cell viability assay.

[18] = system: HOS; format: functional, cell-based; settings: Homo sapiens;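 further: growth inhibition of human HOS cells, read out with a cell viability assay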
Description: SANGER: Inhibition of human HOS cell growth in a cell viability assay.

[19] = system: SW756; format: functional, cell-based; settings: Homo sapiens;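 further: growth inhibition of human SW756 cells, read out with a cell viability assay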
Description: SANGER: Inhibition of human SW756 cell growth in a cell viability assay.

[20] = system: NCI-H520; format: functional, cell-based; settings: Homo sapiens;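 further: growth inhibition of NCI-H520 cells, measured by a cell viability assay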
Description: SANGER: Inhibition of human NCI-H520 cell growth in a cell viability assay.

[21] = system: G-401; format: functional, cell-based; settings: Homo sapiens
Description: SANGER: Inhibition of human G-401 cell growth in a cell viability assay.

[22] = system: GAMG; format: functional, cell-based; settings: Homo sapiens;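 further: cell growth inhibition measured by a viability assay in the GAMG human cell line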
Description: SANGER: Inhibition of human GAMG cell growth in a cell viability assay.

[23] = system: SBC-5; format: functional, cell-based; settings: Homo sapiens;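 further: cell viability assay read-out, IC50 is the concentration that inhibits growth of the cells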
Description: SANGER: Inhibition of human SBC-5 cell growth in a cell viability assay.

[24] = system: BHT-101; format: functional, cell-based; settings: Homo sapiens
Description: SANGER: Inhibition of human BHT-101 cell growth in a cell viability assay.

[25] = system: MFE-280; format: functional, cell-based; settings: Homo sapiens;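 further: growth inhibition of MFE-280 cells, determined with a cell viability readout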
Description: SANGER: Inhibition of human MFE-280 cell growth in a cell viability assay.

[26] = system: NCI-H358; format: functional, cell-based; settings: Homo sapiens;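 further: growth inhibition of NCI-H358 human cells, read out with a cell viability assay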
Description: SANGER: Inhibition of human NCI-H358 cell growth in a cell viability assay.

[27] = system: BCPAP; format: functional, cell-based; settings: Homo sapiens;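 further: growth inhibition of BCPAP cells, read out in a cell viability assay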
Description: SANGER: Inhibition of human BCPAP cell growth in a cell viability assay.

[28] = system: SW837; format: functional, cell-based; settings: Homo sapiens;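 further: growth inhibition of SW837 cells, determined with a cell viability assay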
Description: SANGER: Inhibition of human SW837 cell growth in a cell viability assay.

[29] = system: SW1463; format: functional, cell-based; settings: Homo sapiens;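 further: growth inhibition of SW1463 cells, determined with a cell viability assay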
Description: SANGER: Inhibition of human SW1463 cell growth in a cell viability assay.

[30] = system: A673; format: functional, cell-based; settings: Homo sapiens;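 further: growth inhibition of human A673 cells, read out through a cell viability assay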
Description: SANGER: Inhibition of human A673 cell growth in a cell viability assay.

[31] = system: Detroit 562; format: functional, cell-based; settings: Homo sapiens;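 further: growth inhibition of human Detroit 562 cells, read out by a cell viability assay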
Description: SANGER: Inhibition of human Detroit562 cell growth in a cell viability assay.

[32] = system: KP-4; format: functional, cell-based; settings: Homo sapiens;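 further: human KP-4 cells, with growth inhibition read out through a cell viability assay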
Description: SANGER: Inhibition of human KP-4 cell growth in a cell viability assay.

[33] = system: NCI-H2030; format: functional, cell-based; settings: Homo sapiens;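 further: growth inhibition of human NCI-H2030 cells, read out by a cell viability assay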
Description: SANGER: Inhibition of human NCI-H2030 cell growth in a cell viability assay.

[34] = system: PC-3; format: functional, cell-based; settings: Homo sapiens;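 further: cell viability assay measuring growth inhibition of PC-3 cells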
Description: SANGER: Inhibition of human PC-3 cell growth in a cell viability assay.

[35] = system: HN; format: functional, cell-based; settings: Homo sapiens
Description: SANGER: Inhibition of human HN cell growth in a cell viability assay.

[36] = system: NCI-H1755; format: functional, cell-based; settings: Homo sapiens;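 further: cell viability readout used to measure growth inhibition of NCI-H1755 cells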
Description: SANGER: Inhibition of human NCI-H1755 cell growth in a cell viability assay.

[37] = system: SKG-IIIa; format: functional, cell-based; settings: Homo sapiens;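 further: cell growth inhibition, read out with a cell viability assay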
Description: SANGER: Inhibition of human SKG-IIIa cell growth in a cell viability assay.

[38] = system: IGROV-1; format: functional, cell-based; settings: Homo sapiens;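 further: reduction of IGROV-1 cell growth, read out with a viability assay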
Description: SANGER: Inhibition of human IGROV-1 cell growth in a cell viability assay.

[39] = system: CAL-12T; format: functional, cell-based, Homo sapiens; settings: Homo sapiens, CAL-12T;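 further: growth inhibition of human CAL-12T cells, read out with a cell viability assay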
Description: SANGER: Inhibition of human CAL-12T cell growth in a cell viability assay.

[40] = system: SAOS-2; format: functional, cell-based; settings: Homo sapiens;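 further: growth inhibition of human Saos-2 cells determined by a cell viability assay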
Description: SANGER: Inhibition of human Saos-2 cell growth in a cell viability assay.

[41] = system: SCC-25; format: functional, cell-based; settings: Homo sapiens;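 further: growth inhibition of SCC-25 cells, measured with a cell viability assay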
Description: SANGER: Inhibition of human SCC-25 cell growth in a cell viability assay.

[42] = system: HCC1937; format: functional, cell-based; settings: Homo sapiens;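 further: growth inhibition measured with a cell viability read-out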
Description: SANGER: Inhibition of human HCC1937 cell growth in a cell viability assay.

[43] = system: NCI-H1437; format: functional, cell-based; settings: Homo sapiens;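 further: growth inhibition of human NCI-H1437 cells, read out by a cell viability assay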
Description: SANGER: Inhibition of human NCI-H1437 cell growth in a cell viability assay.

[44] = system: NCI-H1793; format: functional, cell-based; settings: Homo sapiens;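 further: cell growth inhibition, read out by a cell viability assay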
Description: SANGER: Inhibition of human NCI-H1793 cell growth in a cell viability assay.

[45] = system: MDA-MB-453; format: functional, cell-based; settings: Homo sapiens
Description: SANGER: Inhibition of human MDA-MB-453 cell growth in a cell viability assay.

[46] = system: SW1573; format: functional, cell-based; settings: Homo sapiens;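 further: growth inhibition of SW1573 cells, read out with a cell viability assay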
Description: SANGER: Inhibition of human SW1573 cell growth in a cell viability assay.

SMILES: Cn1cc(/C=C2\C(=O)Nc3cccnc32)c2ccccc21
- pIC50 [1]: < 5.70
- pIC50 [2]: < 5.70
- pIC50 [3]: < 5.70
- pIC50 [4]: < 5.70
- pIC50 [5]: < 5.70
- pIC50 [6]: < 5.70
- pIC50 [7]: < 5.70
- pIC50 [8]: 6.20
- pIC50 [9]: < 5.70
- pIC50 [10]: < 5.70
- pIC50 [11]: < 5.70
- pIC50 [12]: < 5.70
- pIC50 [13]: < 5.70
- pIC50 [14]: < 5.70
- pIC50 [15]: < 5.70
- pIC50 [16]: < 5.70
- pIC50 [17]: < 5.70
- pIC50 [18]: < 5.70
- pIC50 [19]: 6.36
- pIC50 [20]: < 5.70
- pIC50 [21]: < 5.70
- pIC50 [22]: < 5.70
- pIC50 [23]: < 5.70
- pIC50 [24]: < 5.70
- pIC50 [25]: < 5.70
- pIC50 [26]: < 5.70
- pIC50 [27]: < 5.70
- pIC50 [28]: < 5.70
- pIC50 [29]: < 5.70
- pIC50 [30]: < 5.70
- pIC50 [31]: < 5.70
- pIC50 [32]: < 5.70
- pIC50 [33]: < 5.70
- pIC50 [34]: < 5.70
- pIC50 [35]: < 5.70
- pIC50 [36]: < 5.70
- pIC50 [37]: < 5.70
- pIC50 [38]: < 5.70
- pIC50 [39]: < 5.70
- pIC50 [40]: < 5.70
- pIC50 [41]: < 5.70
- pIC50 [42]: < 5.70
- pIC50 [43]: < 5.70
- pIC50 [44]: < 5.70
- pIC50 [45]: < 5.70
- pIC50 [46]: < 5.70

SMILES: CC[C@]1(O)C[C@@H]2CN(CCc3c([nH]c4ccccc34)[C@@](C(=O)OC)(c3cc4c(cc3OC)N(C)[C@H]3[C@@](O)(C(=O)OC)[C@H](OC(C)=O)[C@]5(CC)C=CCN6CC[C@]43[C@@H]65)C2)C1 [VINBLASTINE]
- pIC50 [1]: 7.90
- pIC50 [2]: < 7.00
- pIC50 [3]: 8.46
- pIC50 [4]: 8.07
- pIC50 [5]: 7.33
- pIC50 [6]: 8.19
- pIC50 [7]: < 7.00
- pIC50 [8]: 8.29
- pIC50 [9]: 8.28
- pIC50 [10]: 8.99
- pIC50 [11]: 9.02
- pIC50 [12]: 7.91
- pIC50 [13]: 8.41
- pIC50 [14]: 8.37
- pIC50 [15]: 7.98
- pIC50 [16]: 8.57
- pIC50 [17]: 8.29
- pIC50 [18]: 8.20
- pIC50 [19]: 7.83
- pIC50 [20]: 7.52
- pIC50 [21]: 8.06
- pIC50 [22]: 7.71
- pIC50 [23]: 8.13
- pIC50 [24]: 7.50
- pIC50 [25]: 7.44
- pIC50 [26]: 7.43
- pIC50 [27]: 8.63
- pIC50 [28]: < 7.00
- pIC50 [29]: 7.16
- pIC50 [30]: 8.16
- pIC50 [31]: 8.26
- pIC50 [32]: 8.63
- pIC50 [33]: 7.56
- pIC50 [34]: 7.48
- pIC50 [35]: 8.38
- pIC50 [36]: 7.71
- pIC50 [37]: 7.76
- pIC50 [38]: < 7.00
- pIC50 [39]: 7.25
- pIC50 [40]: 7.49
- pIC50 [41]: 7.80
- pIC50 [42]: < 7.00
- pIC50 [43]: 8.11
- pIC50 [44]: 7.53
- pIC50 [45]: 8.48
- pIC50 [46]: 7.48

SMILES: NC(=O)c1ncn([C@@H]2O[C@H](COP(=O)(O)O)[C@@H](O)[C@H]2O)c1N
- pIC50 [1]: 2.84
- pIC50 [2]: < 2.70
- pIC50 [3]: < 2.70
- pIC50 [5]: 3.00
- pIC50 [6]: 3.34
- pIC50 [7]: < 2.70
- pIC50 [8]: < 2.70
- pIC50 [9]: 3.46
- pIC50 [10]: 2.86
- pIC50 [11]: < 2.70
- pIC50 [12]: < 2.70
- pIC50 [13]: < 2.70
- pIC50 [14]: 3.17
- pIC50 [15]: 3.60
- pIC50 [16]: < 2.70
- pIC50 [17]: 2.82
- pIC50 [18]: < 2.70
- pIC50 [19]: < 2.70
- pIC50 [20]: 3.13
- pIC50 [21]: < 2.70
- pIC50 [22]: < 2.70
- pIC50 [23]: 2.83
- pIC50 [24]: < 2.70
- pIC50 [25]: < 2.70
- pIC50 [26]: < 2.70
- pIC50 [27]: 3.13
- pIC50 [28]: < 2.70
- pIC50 [29]: < 2.70
- pIC50 [30]: < 2.70
- pIC50 [31]: 2.91
- pIC50 [32]: < 2.70
- pIC50 [33]: 2.82
- pIC50 [34]: 3.46
- pIC50 [35]: 3.60
- pIC50 [36]: 2.74
- pIC50 [37]: < 2.70
- pIC50 [38]: < 2.70
- pIC50 [39]: 3.18
- pIC50 [40]: < 2.70
- pIC50 [41]: 2.91
- pIC50 [42]: < 2.70
- pIC50 [43]: 3.22
- pIC50 [44]: < 2.70
- pIC50 [45]: < 2.70
- pIC50 [46]: < 2.70

SMILES: COc1cc(Nc2c(C#N)cnc3cc(OCCCN4CCN(C)CC4)c(OC)cc23)c(Cl)cc1Cl [BOSUTINIB]
- pIC50 [1]: < 5.70
- pIC50 [2]: < 5.70
- pIC50 [3]: 5.89
- pIC50 [4]: < 5.70
- pIC50 [5]: < 5.70
- pIC50 [6]: < 5.70
- pIC50 [7]: < 5.70
- pIC50 [8]: < 5.70
- pIC50 [9]: < 5.70
- pIC50 [10]: < 5.70
- pIC50 [11]: 5.94
- pIC50 [12]: < 5.70
- pIC50 [13]: < 5.70
- pIC50 [14]: < 5.70
- pIC50 [15]: < 5.70
- pIC50 [16]: < 5.70
- pIC50 [17]: < 5.70
- pIC50 [18]: < 5.70
- pIC50 [19]: 6.85
- pIC50 [20]: < 5.70
- pIC50 [21]: < 5.70
- pIC50 [22]: < 5.70
- pIC50 [23]: < 5.70
- pIC50 [24]: 6.33
- pIC50 [25]: < 5.70
- pIC50 [26]: < 5.70
- pIC50 [27]: < 5.70
- pIC50 [28]: < 5.70
- pIC50 [29]: < 5.70
- pIC50 [30]: < 5.70
- pIC50 [31]: < 5.70
- pIC50 [32]: < 5.70
- pIC50 [33]: < 5.70
- pIC50 [34]: < 5.70
- pIC50 [35]: 5.72
- pIC50 [36]: < 5.70
- pIC50 [37]: < 5.70
- pIC50 [38]: 6.31
- pIC50 [39]: < 5.70
- pIC50 [40]: < 5.70
- pIC50 [41]: < 5.70
- pIC50 [42]: < 5.70
- pIC50 [43]: < 5.70
- pIC50 [44]: < 5.70
- pIC50 [45]: < 5.70
- pIC50 [46]: < 5.70
